{"source": "paper PMC3589659", "about": "(Investigational New Drugs, 2012)", "key": {"[1]": {"test_system": "pMAPK in epidermal keratinocytes", "assay": "Pharmacodynamics: immunohistochemistry on skin punch biopsies, pMAPK", "conditions": "pretreatment versus on-therapy (Day 21)"}, "advanced solid tumors": {"test_system": "advanced solid tumors", "assay": "Antitumor activity, objective tumor response by RECIST 1.0"}, "[2]": {"test_system": "p27^KIP1 in epidermal keratinocytes", "assay": "Pharmacodynamics: immunohistochemistry on skin punch biopsies, p27KIP1", "conditions": "doses of ≥ 55 mg/day, Day 21"}, "clinical": {"assay": "clinical", "conditions": "human, in vivo; for AUC(0-t): AUC0–24,ss; for CL/F: CL/Fss; for Cmax: Cmax,ss; for Vd/F: Vz/Fss"}, "[3]": {"test_system": "patients with advanced solid tumors", "assay": "Safety and tolerability: adverse events graded by CTCAE version 3.0", "format": "in vivo, human"}, "[4]": {"test_system": "Ki-67 in epidermal keratinocytes", "conditions": "doses of ≥ 55 mg/day, Day 21 versus pretreatment"}, "[5]": {"test_system": "pAkt in epidermal keratinocytes", "assay": "Pharmacodynamics: immunohistochemistry on skin punch biopsies, pAkt", "conditions": "pretreatment versus on-therapy (Day 21)"}, "[6]": {"assay": "Plasma pharmacokinetics, non-compartmental analysis", "conditions": "65 mg once daily, Day 21, individual values of 2 patients"}, "[7]": {"test_system": "patients with advanced solid tumors", "assay": "Phase I dose escalation: dose-limiting toxicities and maximum tolerated dose", "conditions": "oral once daily, 3-week-on/1-week-off schedule"}, "[8]": {"conditions": "human, in vivo"}, "[9]": {"test_system": "patients with advanced solid tumors", "conditions": "human, in vivo"}}, "note": "Read-outs that look alike come from different tables or passages of the source. Marks after values point to notes of the source that are not given here."}
{"compound": "CN(C)C/C=C/C(=O)Nc1cc2c(Nc3ccc(F)c(Cl)c3)ncnc2cc1O[C@H]1CCOC1", "note": "[afatinib]", "values": [{"measurement": "change in level of pMAPK in normal skin punch biopsies", "setting": "[1]", "value": "No significant changes"}, {"measurement": "Discontinued due to disease progression, n (%)", "setting": "advanced solid tumors; 10 mg/day", "value": "3 (100.0) n (%)"}, {"measurement": "Discontinued due to disease progression, n (%)", "setting": "advanced solid tumors; 20 mg/day", "value": "2 (33.3) n (%)"}, {"measurement": "Discontinued due to disease progression, n (%)", "setting": "advanced solid tumors; 40 mg/day", "value": "3 (37.5) n (%)"}, {"measurement": "Discontinued due to disease progression, n (%)", "setting": "advanced solid tumors; 55 mg/day", "value": "8 (40.0) n (%)"}, {"measurement": "Discontinued due to disease progression, n (%)", "setting": "advanced solid tumors; 65 mg/day", "value": "1 (16.7) n (%)"}, {"measurement": "confirmed objective responses", "setting": "advanced solid tumors; RECIST 1.0, all doses", "value": "no confirmed objective responses"}, {"measurement": "Discontinued due to disease progression, n (%)", "setting": "advanced solid tumors; Total, all doses", "value": "17 (39.5) n (%)"}, {"measurement": "decrease in tumor size", "setting": "advanced solid tumors; one patient with CRC", "value": 14, "unit": "%"}, {"measurement": "decrease in tumor size", "setting": "advanced solid tumors; one patient with NSCLC", "value": 27, "unit": "%"}, {"measurement": "tumor shrinkage", "setting": "advanced solid tumors; one patient with parotid carcinoma, Cycle 4, maintained until Cycle 6", "value": 13, "unit": "%"}, {"measurement": "patients with stable disease for at least 16 weeks", "setting": "advanced solid tumors; received at least 5 cycles of treatment", "value": 8, "unit": "patients"}, {"measurement": "increase in the total number of p27^KIP1-positive epidermal keratinocytes versus pretreatment", "setting": "[2]", "value": "about 16%"}, {"measurement": "Tmax", "setting": "clinical; 10 mg", "value": 4, "unit": "h"}, {"measurement": "half-life", "setting": "clinical; 10 mg", "value": 35.7, "unit": "h"}, {"measurement": "AUC(0-t)", "setting": "clinical; 10 mg", "value": 63.7, "unit": "ng·h/mL"}, {"measurement": "CL/F", "setting": "clinical; 10 mg", "value": 2620, "unit": "mL/min"}, {"measurement": "Cmax", "setting": "clinical; 10 mg", "value": 3.99, "unit": "ng/mL"}, {"measurement": "Vd/F", "setting": "clinical; 10 mg", "value": 8080, "unit": "L"}, {"measurement": "half-life", "setting": "clinical; 20 mg", "value": 43.2, "unit": "h"}, {"measurement": "AUC(0-t)", "setting": "clinical; 20 mg", "value": 455, "unit": "ng·h/mL"}, {"measurement": "CL/F", "setting": "clinical; 20 mg", "value": 732, "unit": "mL/min"}, {"measurement": "Cmax", "setting": "clinical; 20 mg", "value": 31.3, "unit": "ng/mL"}, {"measurement": "Vd/F", "setting": "clinical; 20 mg", "value": 2740, "unit": "L"}, {"measurement": "half-life", "setting": "clinical; 40 mg", "value": 42.8, "unit": "h"}, {"measurement": "CL/F", "setting": "clinical; 40 mg", "value": 734, "unit": "mL/min"}, {"measurement": "Cmax", "setting": "clinical; 40 mg", "value": 58.9, "unit": "ng/mL"}, {"measurement": "Vd/F", "setting": "clinical; 40 mg", "value": 2720, "unit": "L"}, {"measurement": "half-life", "setting": "clinical; 55 mg", "value": 35.1, "unit": "h"}, {"measurement": "AUC(0-t)", "setting": "clinical; 55 mg", "value": 1360, "unit": "ng·h/mL"}, {"measurement": "CL/F", "setting": "clinical; 55 mg", "value": 653, "unit": "mL/min"}, {"measurement": "Cmax", "setting": "clinical; 55 mg", "value": 90.8, "unit": "ng/mL"}, {"measurement": "Vd/F", "setting": "clinical; 55 mg", "value": 2040, "unit": "L"}, {"measurement": "Tmax", "setting": "clinical; 65 mg", "value": 9, "unit": "h"}, {"measurement": "drug-related diarrhea", "setting": "[3]; 10 mg", "value": "no drug-related diarrhea was observed"}, {"measurement": "treatment-related Grade ≥2 AEs", "setting": "[3]; 10 mg dose cohort", "value": "No treatment-related Grade ≥2 AEs were observed"}, {"measurement": "drug-related diarrhea", "setting": "[3]; 20 mg", "value": "no drug-related diarrhea was observed"}, {"measurement": "patients who developed diarrhea", "setting": "[3]; 40 mg", "value": 50, "unit": "%"}, {"measurement": "Discontinued due to other toxicity, n (%)", "setting": "[3]; 40 mg/day", "value": "1 (12.5) n (%)"}, {"measurement": "patients who developed diarrhea", "setting": "[3]; 55 mg", "value": 90, "unit": "%"}, {"measurement": "Discontinued due to other toxicity, n (%)", "setting": "[3]; 55 mg/day", "value": "4 (20.0) n (%)"}, {"measurement": "Discontinued due to other toxicity, n (%)", "setting": "[3]; 65 mg/day", "value": "2 (33.3) n (%)"}, {"measurement": "patients who developed diarrhea", "setting": "[3]; 65 mg/day", "value": 100, "unit": "%"}, {"measurement": "Discontinued due to other toxicity, n (%)", "setting": "[3]; Total, all doses", "value": "7 (16.3) n (%)"}, {"measurement": "Grade 4 or 5 AEs", "setting": "[3]; all doses", "value": "No Grade 4 or 5 AEs were observed"}, {"measurement": "Grade ≥2 reductions in LVEF", "setting": "[3]; all doses", "value": "No patients had Grade ≥2 reductions in LVEF"}, {"measurement": "cases in which diarrhea started within 1–7 days after treatment initiation", "setting": "[3]; all doses", "value": 80, "unit": "%"}, {"measurement": "patients who experienced a serious adverse event (SAE)", "setting": "[3]; all doses", "value": 34.9, "unit": "%"}, {"measurement": "patients with drug-related AEs within their first 28-day cycle", "setting": "[3]; all doses", "value": 38, "unit": "patients"}, {"measurement": "skin events considered to be related to afatinib", "setting": "[3]; all doses", "value": 91, "unit": "%"}, {"measurement": "drug-related anorexia", "setting": "[3]; all doses, entire trial", "value": 16.3, "unit": "%"}, {"measurement": "drug-related diarrhea", "setting": "[3]; all doses, entire trial", "value": 65.1, "unit": "%"}, {"measurement": "drug-related epistaxis", "setting": "[3]; all doses, entire trial", "value": 23.3, "unit": "%"}, {"measurement": "drug-related fatigue", "setting": "[3]; all doses, entire trial", "value": 20.9, "unit": "%"}, {"measurement": "drug-related mucosal inflammation", "setting": "[3]; all doses, entire trial", "value": 23.3, "unit": "%"}, {"measurement": "drug-related nausea", "setting": "[3]; all doses, entire trial", "value": 41.9, "unit": "%"}, {"measurement": "drug-related rash", "setting": "[3]; all doses, entire trial", "value": 58.1, "unit": "%"}, {"measurement": "drug-related stomatitis", "setting": "[3]; all doses, entire trial", "value": 25.6, "unit": "%"}, {"measurement": "drug-related vomiting", "setting": "[3]; all doses, entire trial", "value": 34.9, "unit": "%"}, {"measurement": "start of skin events after treatment initiation", "setting": "[3]; majority of cases", "value": "7 to 28", "unit": "days"}, {"measurement": "start of diarrhea after afatinib treatment initiation", "setting": "[3]; majority of cases (80 %)", "value": "1 to 7", "unit": "days"}, {"measurement": "deaths during afatinib administration considered to be related to afatinib", "setting": "[3]; three deaths occurred", "value": "None"}, {"measurement": "reduction of the number of Ki-67-positive cells in skin biopsies", "setting": "[4]", "value": 31, "unit": "%"}, {"measurement": "change in level of pAkt in paired skin biopsies", "setting": "[5]", "value": "no significant difference"}, {"measurement": "t½,ss", "setting": "[6]", "value": 25.8, "unit": "h"}, {"measurement": "maximum tolerated dose (MTD)", "setting": "[7]", "value": 55, "unit": "mg/day"}, {"measurement": "time to reach steady-state", "setting": "[8]", "value": "≤ 8", "unit": "days"}, {"measurement": "AUC0–24,ss,norm", "setting": "[8]; 10 mg", "value": "6.37 (99.8) [ng·h/mL]/mg"}, {"measurement": "Cmax,ss,norm", "setting": "[8]; 10 mg", "value": "0.399 (83.7) [ng/mL]/mg"}, {"measurement": "AUC0–24,ss,norm", "setting": "[8]; 20 mg", "value": "22.8 (61.8) [ng·h/mL]/mg"}, {"measurement": "Cmax,ss,norm", "setting": "[8]; 20 mg", "value": "1.57 (94.1) [ng/mL]/mg"}, {"measurement": "AUC0–24,ss,norm", "setting": "[8]; 40 mg", "value": "22.7 (69.1) [ng·h/mL]/mg"}, {"measurement": "Cmax,ss,norm", "setting": "[8]; 40 mg", "value": "1.47 (83.7) [ng/mL]/mg"}, {"measurement": "AUC0–24,ss,norm", "setting": "[8]; 55 mg", "value": "24.7 (68.1)^b [ng·h/mL]/mg"}, {"measurement": "Cmax,ss,norm", "setting": "[8]; 55 mg", "value": "1.65 (67.8)^b [ng/mL]/mg"}, {"measurement": "Discontinued due to DLT, n (%)", "setting": "[9]", "value": "4 (9.3) n (%)"}, {"measurement": "DLTs occurring during the first treatment cycle, n (%)", "setting": "[9]; 28 day", "value": "11 (25.6) n (%)"}, {"measurement": "recommended dose for further studies using this schedule", "setting": "[9]; 28 day", "value": 40, "unit": "mg/day"}]}
